Starred links: 1 amine or outer side, 2 acyl side, 3 side chain; linkers in the order of their positions; H or OH if unused. Non-standard residues stand in square brackets, D forms with d. Residues, ends and D or L forms follow the SMILES beside them. Groups on a side chain read outwards from the residue. *: point of attachment. X2 = CC(C)(CC(N)=O)[C@H](N[*:1])C(=O)[*:2]; C18 diacid = O=C(O)CCCCCCCCCCCCCCCCC(=O)*; γGlu = O=C(O)[C@H](CCC(=O)[*:2])N[*:1]; αMeF = C[C@](N)(Cc1ccccc1)C(=O)O; Myristoyl = CCCCCCCCCCCCCC(=O)*; PEG2 = NCCOCCOCCC(=O)O; AEEA = NCCOCCOCC(=O)O; Aib = CC(C)(N)C(=O)O
Target: human GLP-1 receptor (hGLP-1R) (Homo sapiens, UniProt P43220)
Test: cAMP production (HTRF) in CHO cells expressing hGLP-1R
Format: cell-based
Design: expressed in transfected cells
Conditions: for EC50: Table 6, peptides modified at position 17, cAMP in CHO hGLP-1R cells, geometric mean, read-out: hGLP-1R EC50; for % Relative Potency Ratio: % GLP-1R activity relative to GLP-1 / % GlucR activity relative to glucagon
Protocol: Cells were re-suspended in assay buffer at a batch-dependent optimized concentration (typically hGLP-1R cells at 1×10^5 cells/mL, hGCGR cells at 2×10^5 cells/mL).
Cells were added to the assay plate using a multidrop dispenser and incubated at room temperature for 30 minutes before measuring the cAMP level using a cAMP dynamic 2 homogeneous time resolved Fluorescence (HTRF) kit (Cisbio Bioassays #62AM4PEJ) following the two-step protocol as per manufacturer's recommendations. In brief, anti-cAMP cryptate (donor fluorophore) and cAMP-d2 (acceptor fluorophore) were made up separately by diluting each 1 in 20 in conjugate and lysis buffer provided in the kit. Anti-CAMP cryptate was added to all wells of the assay plate, followed by cAMP-d2 added to all wells except non-specific binding (NSB) wells (to which conjugate and lysis buffer was added).
Data was transformed to % Delta F as described in the manufacturer's guidelines and analyzed by 4-parameter logistic fit to determine EC50 values.

Sequence of human GLP-1 receptor (hGLP-1R) (P43220 24-463): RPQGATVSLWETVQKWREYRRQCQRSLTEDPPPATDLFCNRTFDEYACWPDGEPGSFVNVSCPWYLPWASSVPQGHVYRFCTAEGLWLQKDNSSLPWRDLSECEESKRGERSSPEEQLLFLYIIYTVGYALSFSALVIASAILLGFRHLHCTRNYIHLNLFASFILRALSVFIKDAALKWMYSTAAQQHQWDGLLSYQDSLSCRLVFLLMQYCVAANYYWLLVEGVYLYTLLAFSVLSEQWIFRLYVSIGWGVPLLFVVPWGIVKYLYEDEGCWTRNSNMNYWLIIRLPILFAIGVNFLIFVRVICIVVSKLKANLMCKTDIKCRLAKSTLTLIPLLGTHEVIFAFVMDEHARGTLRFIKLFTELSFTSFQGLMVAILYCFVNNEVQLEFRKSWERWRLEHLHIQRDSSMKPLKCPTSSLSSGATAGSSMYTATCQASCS

Row | Structure (SMILES) | EC50 | % Relative Potency Ratio (Table 6) | % Relative Potency Ratio (Table 7)
1 | CCCCCCCCCCCCCC(=O)N[C@@H](CCC(=O)NCCOCCOCCC(=O)NCCOCCOCCC(=O)NCCCC[C@H](NC(=O)[C@H](CO)NC(=O)[C@H](CC(=O)O)NC(=O)[C@H](CC(C)C)NC(=O)[C@@H](NC(=O)[C@H](CCCCN)NC(=O)[C@H](CO)NC(=O)[C@@H](NC(=O)[C@H](CC(=O)O)NC(=O)[C@H](CO)NC(=O)[C@@H](NC(=O)[C@](C)(Cc1ccccc1)NC(=O)[C@H](CO)NC(=O)CNC(=O)[C@H](CCC(N)=O)NC(=O)[C@H](CO)NC(=O)[C@@H](N)Cc1c[nH]cn1)[C@@H](C)O)C(C)C)[C@@H](C)CC)C(=O)N[C@@H](C)C(=O)N[C@@H](C)C(=O)N[C@@H](CCC(N)=O)C(=O)N[C@@H](CC(=O)O)C(=O)N[C@@](C)(Cc1ccccc1)C(=O)N[C@H](C(=O)N[C@@H](CCC(N)=O)C(=O)NC(C)(C)C(=O)N[C@H](C(=O)N[C@H](C(=O)N[C@@H](CC(N)=O)C(=O)N[C@H](C(N)=O)[C@@H](C)O)[C@@H](C)CC)[C@@H](C)CC)C(C)C)C(=O)O [Peptide 122] (H-HSQGS[αMeF]TSDVSKILDSK([PEG2-PEG2-γGlu-Myristoyl])AAQD[αMeF]VQ[Aib]IINT-NH2; N-terminus assumed) | 0.00142 nM | 1.2 | 
2 | CC(C)C[C@H](NC(=O)[C@H](Cc1c[nH]c2ccccc12)NC(=O)[C@H](CCCNC(=N)N)NC(=O)[C@@H](NC(=O)[C@H](Cc1ccccc1)NC(=O)[C@H](CC(=O)O)NC(=O)[C@H](CCCNC(=N)N)NC(=O)[C@H](C)NC(=O)[C@H](CCCNC(=N)N)NC(=O)[C@H](CCCCNC(=O)CC[C@H](NC(=O)CC[C@H](NC(=O)COCCOCCNC(=O)COCCOCCNC(=O)CC[C@H](NC(=O)CC[C@H](NC(=O)CCCCCCCCCCCCCCCCC(=O)O)C(=O)O)C(=O)O)C(=O)O)C(=O)O)NC(=O)[C@H](CO)NC(=O)[C@H](CC(=O)O)NC(=O)[C@H](CC(C)C)NC(=O)[C@](C)(Cc1ccccc1)NC(=O)[C@H](CCCCN)NC(=O)[C@H](CO)NC(=O)[C@@H](NC(=O)[C@H](CC(=O)O)NC(=O)[C@H](CO)NC(=O)[C@@H](NC(=O)[C@H](Cc1ccccc1)NC(=O)[C@@H](NC(=O)CNC(=O)[C@H](CCC(N)=O)NC(=O)C(C)(C)NC(=O)[C@@H](N)Cc1c[nH]cn1)[C@@H](C)O)[C@@H](C)O)C(C)C)C(C)C)C(=O)N[C@@H](CC(C)C)C(=O)N[C@@H](CCC(=O)O)C(=O)NC(C)(C)C(=O)NCC(=O)O [Peptide 136] (H-H[Aib]QGTFTSDVSK[αMeF]LDSK([γGlu-γGlu-AEEA-AEEA-γGlu-γGlu-C18 diacid])RARDFVRWLLE[Aib]G-OH; N-terminus assumed) |  | 22.3 | 
3 | CC(C)C[C@H](NC(=O)[C@H](Cc1c[nH]c2ccccc12)NC(=O)[C@H](CCCNC(=N)N)NC(=O)[C@@H](NC(=O)[C@H](Cc1ccccc1)NC(=O)[C@H](CC(=O)O)NC(=O)[C@H](CCCNC(=N)N)NC(=O)[C@H](C)NC(=O)[C@H](CCCNC(=N)N)NC(=O)[C@H](CCCCNC(=O)CC[C@H](NC(=O)CC[C@H](NC(=O)COCCOCCNC(=O)COCCOCCNC(=O)CC[C@H](NC(=O)CC[C@H](NC(=O)CCCCCCCCCCCCCCCCC(=O)O)C(=O)O)C(=O)O)C(=O)O)C(=O)O)NC(=O)[C@H](CO)NC(=O)[C@H](CC(=O)O)NC(=O)[C@H](CC(C)C)NC(=O)[C@](C)(Cc1ccccc1)NC(=O)[C@H](CCCCN)NC(=O)[C@H](CO)NC(=O)[C@@H](NC(=O)[C@H](CC(=O)O)NC(=O)[C@H](CO)NC(=O)[C@@H](NC(=O)[C@H](Cc1ccccc1)NC(=O)[C@@H](NC(=O)CNC(=O)[C@H](CCC(N)=O)NC(=O)C(C)(C)NC(=O)[C@@H](N)Cc1c[nH]cn1)[C@@H](C)O)[C@@H](C)O)C(C)C)C(C)C)C(=O)N[C@@H](CC(C)C)C(=O)N[C@@H](CCC(=O)O)C(=O)NC(C)(C)C(=O)NCC(=O)O [Peptide 144] (H-H[Aib]QGTFTSDVSK[αMeF]LDSK([γGlu-γGlu-AEEA-AEEA-γGlu-γGlu-C18 diacid])RARDFVRWLLE[Aib]G-OH; N-terminus assumed) | 0.0452 nM | 30.7 | 
4 | CC(C)C[C@H](NC(=O)[C@H](Cc1c[nH]c2ccccc12)NC(=O)[C@H](CCCNC(=N)N)NC(=O)[C@@H](NC(=O)[C@H](Cc1ccccc1)NC(=O)[C@H](CC(=O)O)NC(=O)[C@H](CCC(N)=O)NC(=O)[C@H](C)NC(=O)[C@H](CCCNC(=N)N)NC(=O)[C@H](CCCCNC(=O)COCCOCCNC(=O)COCCOCCNC(=O)CC[C@H](NC(=O)CCCCCCCCCCCCCCCCC(=O)O)C(=O)O)NC(=O)[C@H](CO)NC(=O)[C@H](CC(=O)O)NC(=O)[C@H](CC(C)C)NC(=O)[C@](C)(Cc1ccccc1)NC(=O)[C@H](CCCCN)NC(=O)[C@H](CO)NC(=O)[C@@H](NC(=O)[C@H](CC(=O)O)NC(=O)[C@H](CO)NC(=O)[C@@H](NC(=O)[C@H](Cc1ccccc1)NC(=O)[C@@H](NC(=O)CNC(=O)[C@H](CCC(N)=O)NC(=O)C(C)(C)NC(=O)[C@@H](N)Cc1c[nH]cn1)[C@@H](C)O)[C@@H](C)O)C(C)C)C(C)C)C(=O)N[C@@H](CC(C)C)C(=O)NC(C)(C)C(=O)N[C@H](C(=O)N[C@@H](CCCCN)C(=O)O)[C@@H](C)O [Peptide 177] |  | 25.5 | 
5 | CC[C@H](C)[C@H](NC(=O)[C@H](Cc1c[nH]c2ccccc12)NC(=O)[C@H](C)NC(=O)[C@@H](NC(=O)[C@](C)(Cc1ccccc1)NC(=O)[C@H](CC(=O)O)NC(=O)[C@H](CCCCNC(=O)COCCOCCNC(=O)COCCOCCNC(=O)CC[C@H](NC(=O)CCCCCCCCCCCCCCCCC(=O)O)C(=O)O)NC(=O)[C@H](C)NC(=O)[C@H](C)NC(=O)[C@H](CCCNC(=N)N)NC(=O)[C@H](CO)NC(=O)[C@H](CC(=O)O)NC(=O)[C@H](CC(C)C)NC(=O)[C@](C)(Cc1ccccc1)NC(=O)[C@H](CCCCN)NC(=O)[C@H](CO)NC(=O)[C@@H](NC(=O)[C@H](CC(=O)O)NC(=O)[C@H](CO)NC(=O)[C@@H](NC(=O)[C@](C)(Cc1ccccc1)NC(=O)[C@H](CO)NC(=O)CNC(=O)[C@H](Cc1c[nH]cn1)NC(=O)C(C)(C)NC(=O)[C@@H](N)Cc1c[nH]cn1)[C@@H](C)O)C(C)C)[C@@H](C)CC)C(=O)N[C@@H](C)C(=O)N[C@@H](CC(N)=O)C(=O)N[C@H](C(N)=O)[C@@H](C)O [Peptide 230] (H-H[Aib]HGS[αMeF]TSDVSK[αMeF]LDSRAAK([AEEA-AEEA-γGlu-C18 diacid])D[αMeF]IAWIANT-NH2) |  |  | 0.4
6 | CC[C@H](C)[C@H](NC(=O)C(C)(C)NC(=O)[C@H](CCC(N)=O)NC(=O)[C@@H](NC(=O)[C@](C)(Cc1ccccc1)NC(=O)[C@H](CC(=O)O)NC(=O)[C@H](CCCCNC(=O)COCCOCCNC(=O)COCCOCCNC(=O)CC[C@H](NC(=O)CCCCCCCCCCCCCCCCC(=O)O)C(=O)O)NC(=O)[C@H](C)NC(=O)[C@H](C)NC(=O)[C@H](CCCNC(=N)N)NC(=O)[C@H](CO)NC(=O)[C@H](CC(=O)O)NC(=O)[C@H](CC(C)C)NC(=O)[C@](C)(Cc1ccccc1)NC(=O)[C@H](CCCCN)NC(=O)[C@H](CO)NC(=O)[C@@H](NC(=O)[C@H](CC(=O)O)NC(=O)[C@H](CO)NC(=O)[C@@H](NC(=O)[C@](C)(Cc1ccccc1)NC(=O)[C@H](CO)NC(=O)CNC(=O)[C@@H](NC(=O)[C@H](CO)NC(=O)[C@@H](N)Cc1c[nH]cn1)C(C)(C)CC(N)=O)[C@@H](C)O)C(C)C)C(C)C)C(=O)N[C@@H](C)C(=O)N[C@@H](CC(N)=O)C(=O)N[C@H](C(N)=O)[C@@H](C)O [Peptide 324] (H-HS[X2]GS[αMeF]TSDVSK[αMeF]LDSRAAK([AEEA-AEEA-γGlu-C18 diacid])D[αMeF]VQ[Aib]IANT-NH2; N-terminus assumed) |  |  | 2.9

Reference: US20250353891A1 (MEDIMMUNE LIMITED, priority 2022, published 2025)
